Here are results for one compound from publication PMC10233622, “Structural and functional investigation of a fungal member of carbohydrate esterase family 15 with potential specificity for rare xylans” (Acta Crystallographica. Section D, Structural Biology, 2023).

For the assay, the target named is T1, LfCE15C (Lentithecium fluviatile, UniProt A0A6G1IIU9).
T1 construct: gene K458DRAFT_349146; native signal peptide removed; secreted from Pichia pastoris SMD1168H; N-glycosylated at Asn241
Nature of the assay: nanoDSF thermal shift (Tycho NT.[…] nm). As to conditions: 20 mM ligand; 0.1 M sodium phosphate pH 6.5; indirect indication of binding. A general note: In DSF a fluorescence change marks the thermal transition of the protein.

T1 sequence (A0A6G1IIU9 entry or part of it): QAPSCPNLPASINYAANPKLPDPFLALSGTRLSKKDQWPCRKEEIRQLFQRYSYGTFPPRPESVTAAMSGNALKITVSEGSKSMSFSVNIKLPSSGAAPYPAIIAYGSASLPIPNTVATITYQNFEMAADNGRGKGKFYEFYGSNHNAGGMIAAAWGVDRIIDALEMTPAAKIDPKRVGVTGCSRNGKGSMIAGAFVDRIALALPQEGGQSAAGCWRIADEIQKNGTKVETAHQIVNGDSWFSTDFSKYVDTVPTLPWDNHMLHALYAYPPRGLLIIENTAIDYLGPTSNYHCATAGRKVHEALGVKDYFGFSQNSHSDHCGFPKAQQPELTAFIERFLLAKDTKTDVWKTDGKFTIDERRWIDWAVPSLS

Consider `O=C(OCc1ccccc1)[C@H]1OC(O)[C@H](O)[C@@H](O)[C@@H]1O` (stereo partly shown) [BnzGlcA, benzyl glucuronate], for which the Ti shift result is on record as “A decrease in T i was observed with BnzGlcA”.
